Assay [1] concerns the target recombinant human NF-kappaB-inducing kinase (NIK/MAP3K14) (Homo sapiens (Human), UniProt Q99558). The experiment in a line: Inhibition of auto-phosphorylation of recombinant human NIK/MAP3K14 (AlphaScreen). The class given is biochemical. The conditions noted are these: NIK auto-phosphorylation, 5 μM ATP, 1 nM NIK, 2 h at 25° C.; average of values. An outline of the steps: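 GST-tagged NIK (1 nM) auto-phosphorylated with 5 μM ATP for 2 h at 25° C. in 50 mM Tris pH 7.5, 5 mM MgCl2, 1 mM EGTA, 1 mM DTT, 0.1 mM Na3VO4, 0.01% Tween 20 (0.7% DMSO). Detected by AlphaScreen via anti-phospho-IKK Ser176/180 antibody; IC50 from sigmoidal fit of % inhibition versus log concentration.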
A general note: Bead proximity is the source of the signal in Alpha formats.

The test system of assay [2] is p-IKKα levels in L363 (NIK translocated multiple myeloma) cells. The assay is described as follows: Effect of compounds on p-IKKα levels in L363 cells (AlphaLISA SureFire Ultra). The class given is cell-based, human. The settings on record: Homo sapiens, L-363, 6 h, BAFF stimulated, MG132, 6 h, average of values, read-out: Assay 2 IC50. An outline of the steps: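 Inhibition of p-IKKα (Ser176/180) read by AlphaLISA after 6 h, 37 °C compound exposure (11-point 1:3 series, 0.3% DMSO) of L363 cells pre-incubated overnight ± 250 ng/ml BAFF and plated ± BAFF ± 10 μM MG132. Normalised to BAFF/MG132/DMSO and unstimulated controls; IC50 by sigmoidal fitting, duplicates.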

The structures appear in SMILES notation. A value given as a limit tells only on which side of the number the result lay.

By IC50 is commonly meant the concentration needed to halve the response being measured.

Chain of recombinant human NF-kappaB-inducing kinase (NIK/MAP3K14) (Q99558 whole entry): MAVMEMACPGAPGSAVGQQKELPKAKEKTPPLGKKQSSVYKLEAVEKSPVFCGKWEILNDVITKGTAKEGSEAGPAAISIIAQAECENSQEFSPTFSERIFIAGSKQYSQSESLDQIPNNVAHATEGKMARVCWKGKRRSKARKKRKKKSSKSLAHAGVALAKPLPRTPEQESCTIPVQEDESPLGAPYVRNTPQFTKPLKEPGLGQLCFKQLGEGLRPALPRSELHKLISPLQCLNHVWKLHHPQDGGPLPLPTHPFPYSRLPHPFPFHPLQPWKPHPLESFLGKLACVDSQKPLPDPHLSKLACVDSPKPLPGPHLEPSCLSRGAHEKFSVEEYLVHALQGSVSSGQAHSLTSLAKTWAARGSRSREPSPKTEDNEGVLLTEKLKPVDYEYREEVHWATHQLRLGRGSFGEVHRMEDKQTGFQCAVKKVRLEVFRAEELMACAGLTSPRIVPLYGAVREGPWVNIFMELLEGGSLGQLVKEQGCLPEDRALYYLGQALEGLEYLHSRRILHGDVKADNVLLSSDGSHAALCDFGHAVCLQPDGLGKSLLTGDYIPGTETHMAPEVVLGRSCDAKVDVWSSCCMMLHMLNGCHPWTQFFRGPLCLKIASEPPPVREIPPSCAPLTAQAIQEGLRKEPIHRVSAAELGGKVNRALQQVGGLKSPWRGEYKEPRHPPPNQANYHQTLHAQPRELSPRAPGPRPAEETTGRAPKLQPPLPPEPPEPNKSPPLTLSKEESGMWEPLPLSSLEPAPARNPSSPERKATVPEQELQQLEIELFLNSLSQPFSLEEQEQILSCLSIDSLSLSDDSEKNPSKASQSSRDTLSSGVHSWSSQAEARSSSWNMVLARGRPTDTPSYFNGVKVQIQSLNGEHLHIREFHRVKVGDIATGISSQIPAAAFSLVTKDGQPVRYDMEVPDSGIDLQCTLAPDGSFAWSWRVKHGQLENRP

Consider `CN1CC[C@@](O)(C#Cc2cccc(-c3ccc4[nH]nc(N)c4n3)c2)C1=O` [Example 22, (R)-3-[2-[3-(3-Amino-1H-pyrazolo[4,3-b]pyridin-5-yl)phenyl]ethynyl]-3-hydroxy-1-methyl-pyrrolidin-2-one], for which the half-inhibitory concentration (IC50) in assay [1] was determined as 4.3 nM; in assay [2] it was 480 nM.
As for `CN1CC[C@@](O)(C#Cc2cccc(-c3cn4cncc4c(=O)[nH]3)c2)C1=O` [Example 218, (R)-6-[3-[2-(3-Hydroxy-1-methyl-2-oxo-pyrrolidin-3-yl)ethynyl]phenyl]-7H-imidazo[1,5-a]pyrazin-8-one], the half-maximal inhibitory concentration (IC50) is 78 nM in assay [1] and more than 5000 nM in assay [2].
Consider `CN1CC[C@@](O)(C#Cc2cccc(-c3ncc4c(-c5cnn(CCN)c5)cnc(N)c4n3)c2)C1=O` [Example 134, (R)-3-[2-[3-[8-Amino-5-[1-(2-aminoethyl)pyrazol-4-yl]pyrido[3,4-d]pyrimidin-2-yl]phenyl]ethynyl]-3-hydroxy-1-methyl-pyrrolidin-2-one], for which the values for the IC50 in assay [1] and in assay [2] were not above 0.5 nM and 150 nM, respectively.
Taken in the same sequence, the figures for `Nc1nccc2cnc(-c3cccc(C#C[C@]4(O)CCc5cccnc54)c3)nc12` [Example 45, (R)-7-[2-[3-(8-Aminopyrido[3,4-d]pyrimidin-2-yl)phenyl]ethynyl]-5,6-dihydrocyclopenta[b]pyridin-7-ol] were not above 0.5 nM and 17 nM.
The like results for `CCc1cnc(N)c2nc(-c3cccc(C#C[C@]4(O)CCN(C)C4=O)c3)ncc12` [Example 129, (R)-3-((3-(8-Amino-5-ethylpyrido[3,4-d]pyrimidin-2-yl)phenyl)ethynyl)-3-hydroxy-1-methylpyrrolidin-2-one] were, in that order, not above 0.5 nM and 12 nM.
The like results for `CN1CC[C@@](O)(C#Cc2ccc(OC(F)(F)F)c(-c3ncc4ccnc(N)c4n3)c2)C1=O` [Example 56, (R)-3-((3-(8-Aminopyrido[3,4-d]pyrimidin-2-yl)-4-(trifluoromethoxy)phenyl)ethynyl)-3-hydroxy-1-methylpyrrolidin-2-one] were, in that order, 2 nM and 36 nM.
Turning to `CN1CC[C@@](O)(C#Cc2cccc(-c3cc(N4CC(F)(F)C4)c4ncnc(N)c4n3)c2)C1=O` [Example 300, (R)-3-[2-[3-[4-Amino-8-(3,3-difluoroazetidin-1-yl)pyrido[3,2-d]pyrimidin-6-yl]phenyl]ethynyl]-3-hydroxy-1-methyl-pyrrolidin-2-one], the 50% inhibitory concentration (IC50) in assay [1] was found to be 1.2 nM; in assay [2], 39 nM.
On to `Cc1[nH]ncc1-c1cnc(N)c2nc(-c3cccc(C#C[C@]4(O)CCN(C)C4=O)c3)ncc12` [Example 127, (R)-3-[2-[3-[8-Amino-5-(5-methyl-1H-pyrazol-4-yl)pyrido[3,4-d]pyrimidin-2-yl]phenyl]ethynyl]-3-hydroxy-1-methyl-pyrrolidin-2-one], for which the half-inhibitory concentration (IC50) in assay [1] was not above 0.5 nM; in assay [2], 12 nM.
Take `C[C@@](O)(C#Cc1cccc(-c2ncc3ncnc(N)c3n2)c1)c1nccs1` [Example 137, (R)-4-(3-(8-Aminopyrimido[5,4-d]pyrimidin-2-yl)phenyl)-2-(thiazol-2-yl)but-3-yn-2-ol]: the IC50 in assay [1] is not above 0.5 nM; in assay [2], 9.3 nM.
Regarding `Cc1nc(N)c2nc(-c3cccc(C#C[C@]4(O)C(=O)N(C)C[C@@H]4C)c3)ccc2n1` (stereo in doubt) [Example 293, (3S,4S*)-3-((3-(4-Amino-2-methylpyrido[3,2-d]pyrimidin-6-yl)phenyl)ethynyl)-3-hydroxy-1,4-dimethylpyrrolidin-2-one], the half-maximal inhibitory concentration (IC50) in assay [1] and in assay [2] was more than 5000 nM in each case.
On to `[2H]c1nc(N)c2nc(-c3cccc(C#C[C@@]4(O)C(=O)N(C)[C@@H]5C[C@@H]54)c3)ccc2n1` [Example 276, (1R,4R,5S)-4-((3-(4-Aminopyrido[3,2-d]pyrimidin-6-yl-2-d)phenyl)ethynyl)-4-hydroxy-2-methyl-2-azabicyclo[3.1.0]hexan-3-one], for which the IC50 in assay [1] was not above 0.5 nM; in assay [2] it was 8.9 nM.
For the compound `Nc1nccc2ccc(-c3cccc(C#CC4(O)CCn5ccnc54)c3)nc12` (stereo in doubt) [Example 91, (R)-7-[2-[3-(8-Amino-1,7-naphthyridin-2-yl)phenyl]ethynyl]-5,6-dihydropyrrolo[1,2-a]imidazol-7-ol], the results for the IC50 in assay [1] and in assay [2] were not above 0.5 nM and 17 nM, respectively.
For `CN1CC[C@@](O)(C#Cc2cccc(-c3ncc4c(C(F)(F)F)cnc(N)c4n3)c2)C1=O` [Example 99, (R)-3-[2-[3-[8-Amino-5-(trifluoromethyl)pyrido[3,4-d]pyrimidin-2-yl]phenyl]ethynyl]-3-hydroxy-1-methyl-pyrrolidin-2-one], the half-maximal inhibitory concentration (IC50) is not above 0.5 nM in assay [1] and 12 nM in assay [2].
On to `Cc1nc(N)c2nc(-c3cccc(C#C[C@@](C)(O)c4cscn4)c3)ccc2n1` [Example 212, (R)-4-[3-(4-Amino-2-methyl-pyrido[3,2-d]pyrimidin-6-yl)phenyl]-2-thiazol-4-yl-but-3-yn-2-ol], for which the IC50 in assay [1] is 0.7 nM; in assay [2], 59 nM.
`Cc1cc2ncnc(N)c2nc1-c1cccc(C#C[C@]2(O)CCN(C)C2=O)c1` [Example 189, (R)-3-((3-(4-Amino-7-methylpyrido[3,2-d]pyrimidin-6-yl)phenyl)ethynyl)-3-hydroxy-1-methylpyrrolidin-2-one]: the IC50 in assay [1] is 1.8 nM; in assay [2], 71 nM.
As for `Cc1ccc(C#C[C@]2(O)CCc3cccnc32)cc1-c1ccc2ccnc(N)c2c1` [Example 80, (R)-7-[2-[3-(1-Amino-7-isoquinolyl)-4-methyl-phenyl]ethynyl]-5,6-dihydrocyclopenta[b]pyridin-7-ol], the values for the IC50 in assay [1] and in assay [2] were 28 nM and 4000 nM, respectively.
Take `Nc1nccc2cnc(-c3cccc(C#C[C@]4(O)CCn5ccnc54)c3)nc12` [Example 17, (R)-7-[2-[3-(8-Aminopyrido[3,4-d]pyrimidin-2-yl)phenyl]ethynyl]-5,6-dihydropyrrolo[1,2-a]imidazol-7-ol]: the half-maximal inhibitory concentration (IC50) in assay [1] was not above 0.5 nM; in assay [2], 5.9 nM.
Consider `C[C@@](O)(C#Cc1cccc(-c2nc(C(F)(F)F)c3ccnc(N)c3n2)c1)c1nccs1` [Example 49, (R)-4-(3-(8-Amino-4-(trifluoromethyl)pyrido[3,4-d]pyrimidin-2-yl)phenyl)-2-(thiazol-2-yl)but-3-yn-2-ol], for which the 50% inhibitory concentration (IC50) was 2.5 nM in assay [1] and 130 nM in assay [2].
For the compound `Cc1nc(N)c2nc(-c3cccc(C#CC4(O)CCCc5cccnc54)c3)ccc2n1` (racemic) [Example 165, racemic-8-((3-(4-Amino-2-methylpyrido[3,2-d]pyrimidin-6-yl)phenyl)ethynyl)-5,6,7,8-tetrahydroquinolin-8-ol], the values for the 50% inhibitory concentration (IC50) in assay [1] and in assay [2] were 120 nM and more than 5000 nM, respectively.
As to `Nc1nccc2cnc(-c3cccc(C#C[C@@]4(O)CCn5ccnc54)c3)nc12` [Example 64, (S)-7-[2-[3-(8-Aminopyrido[3,4-d]pyrimidin-2-yl)phenyl]ethynyl]-5,6-dihydropyrrolo[1,2-a]imidazol-7-ol], the concentration for half-maximal inhibition (IC50) is 31 nM in assay [1] and 730 nM in assay [2].
`CN1CC[C@@](O)(C#Cc2cccc(-c3ccc4ncnc(N5CC(Cl)C5)c4n3)c2)C1=O` [Example 244, (R)-3-((3-(4-(3-Chloroazetidin-1-yl)pyrido[3,2-d]pyrimidin-6-yl)phenyl)ethynyl)-3-hydroxy-1-methylpyrrolidin-2-one]: the IC50 in assay [1] is 4.9 nM; in assay [2], 240 nM.

These data come from patent publication US20240199605A1, “SMALL MOLECULAR INHIBITORS OF NF-kB INDUCING KINASE” (Janssen Pharmaceutica NV, priority 2019, published 2024).
